Results from PubChem BioAssay (NCI).
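Compound exposure: 48 hours, 5 concentrations, 96-well plates. The concentration for full growth arrest is given as TGI.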

How the values were obtained:
Test in all cases: NCI tumour cell line growth inhibition, 48 h
TK-10 renal = test system: TK-10 renal
M14 melanoma = test system: M14 melanoma
U251 CNS = test system: U251 CNS
SF-268 CNS = test system: SF-268 CNS
SK-OV-3 ovarian = test system: SK-OV-3 ovarian
SNB-19 CNS = test system: SNB-19 CNS
NCI-H460 lung = test system: NCI-H460 lung
CCRF-CEM leukemia = test system: CCRF-CEM leukemia
OVCAR-8 ovarian = test system: OVCAR-8 ovarian
DMS 114 small cell lung = test system: DMS 114 small cell lung
DLD-1 colon = test system: DLD-1 colon
MOLT-4 leukemia = test system: MOLT-4 leukemia
SK-MEL-2 melanoma = test system: SK-MEL-2 melanoma
UACC-62 melanoma = test system: UACC-62 melanoma
HCT-15 colon = test system: HCT-15 colon
786-0 renal = test system: 786-0 renal
HT29 colon = test system: HT29 colon
OVCAR-4 ovarian = test system: OVCAR-4 ovarian
NCI-H23 lung = test system: NCI-H23 lung
HOP-62 NSCLC = test system: HOP-62 NSCLC
CAKI-1 renal = test system: CAKI-1 renal
DMS 273 small cell lung = test system: DMS 273 small cell lung
RXF 393 renal = test system: RXF 393 renal
HOP-92 NSCLC = test system: HOP-92 NSCLC
SF-539 CNS = test system: SF-539 CNS
HCT-116 colon = test system: HCT-116 colon
A498 renal = test system: A498 renal
XF 498 CNS = test system: XF 498 CNS
SW-620 colon = test system: SW-620 colon
SK-MEL-28 melanoma = test system: SK-MEL-28 melanoma
A549 NSCLC = test system: A549 NSCLC
HL-60(TB) leukemia = test system: HL-60(TB) leukemia
IGROV1 ovarian = test system: IGROV1 ovarian
KM12 colon = test system: KM12 colon
MALME-3M melanoma = test system: MALME-3M melanoma
K-562 leukemia = test system: K-562 leukemia
SN12C renal = test system: SN12C renal
NCI-H226 lung = test system: NCI-H226 lung
ACHN renal = test system: ACHN renal
SF-295 CNS = test system: SF-295 CNS
NCI-H522 lung = test system: NCI-H522 lung
SNB-75 CNS = test system: SNB-75 CNS
SK-MEL-5 melanoma = test system: SK-MEL-5 melanoma
KM20L2 colon = test system: KM20L2 colon
OVCAR-5 ovarian = test system: OVCAR-5 ovarian
EKVX NSCLC = test system: EKVX NSCLC
LXFL 529 NSCLC = test system: LXFL 529 NSCLC
HCC-2998 colon = test system: HCC-2998 colon
RPMI-8226 leukemia = test system: RPMI-8226 leukemia
COLO 205 colon = test system: COLO 205 colon
LOX IMVI melanoma = test system: LOX IMVI melanoma
HOP-18 NSCLC = test system: HOP-18 NSCLC
OVCAR-3 ovarian = test system: OVCAR-3 ovarian
M19-MEL melanoma = test system: M19-MEL melanoma
UO-31 renal = test system: UO-31 renal
UACC-257 melanoma = test system: UACC-257 melanoma
SR leukemia = test system: SR leukemia
SNB-78 CNS = test system: SNB-78 CNS

## COc1ccc(OC)c(/C=C2\CCc3ccccc3C2=O)c1
TK-10 renal
  TGI: 30.3 µM
M14 melanoma
  TGI: 16.3 µM
U251 CNS
  TGI: 14.4 µM
SF-268 CNS
  TGI: 22.2 µM
SK-OV-3 ovarian
  TGI: 18.8 µM
SNB-19 CNS
  TGI: 28.9 µM
NCI-H460 lung
  TGI: 27.5 µM
CCRF-CEM leukemia
  TGI: 14.8 µM
OVCAR-8 ovarian
  TGI: 20.2 µM
DMS 114 small cell lung
  TGI: 5.21 µM
DLD-1 colon
  TGI: 22.8 µM
MOLT-4 leukemia
  TGI: 19.8 µM
SK-MEL-2 melanoma
  TGI: 12.8 µM
UACC-62 melanoma
  TGI: 5.39 µM
HCT-15 colon
  TGI: 29.3 µM
786-0 renal
  TGI: 13.8 µM
HT29 colon
  TGI: 16.7 µM
OVCAR-4 ovarian
  TGI: 22.9 µM
NCI-H23 lung
  TGI: 17.3 µM
HOP-62 NSCLC
  TGI: 10.8 µM
CAKI-1 renal
  TGI: > 100 µM
DMS 273 small cell lung
  TGI: 12.8 µM
RXF 393 renal
  TGI: 6.07 µM
HOP-92 NSCLC
  TGI: 9.32 µM
SF-539 CNS
  TGI: 9.95 µM
HCT-116 colon
  TGI: 20.6 µM
A498 renal
  TGI: 19.7 µM
XF 498 CNS
  TGI: 11 µM
SW-620 colon
  TGI: 15.4 µM
SK-MEL-28 melanoma
  TGI: 28.1 µM
A549 NSCLC
  TGI: 65.6 µM
HL-60(TB) leukemia
  TGI: 5.96 µM
IGROV1 ovarian
  TGI: 47.8 µM
KM12 colon
  TGI: 12.5 µM
MALME-3M melanoma
  TGI: 18.5 µM
K-562 leukemia
  TGI: 10.8 µM
SN12C renal
  TGI: 25.5 µM
NCI-H226 lung
  TGI: 18.6 µM
ACHN renal
  TGI: 81.2 µM
SF-295 CNS
  TGI: 12.4 µM
NCI-H522 lung
  TGI: 4.25 µM
SNB-75 CNS
  TGI: 3.52 µM
SK-MEL-5 melanoma
  TGI: 12.4 µM
KM20L2 colon
  TGI: 9.62 µM
OVCAR-5 ovarian
  TGI: 25.5 µM
EKVX NSCLC
  TGI: 22.7 µM
LXFL 529 NSCLC
  TGI: 31.8 µM
HCC-2998 colon
  TGI: 9.35 µM
RPMI-8226 leukemia
  TGI: 19.6 µM
COLO 205 colon
  TGI: 13.5 µM
LOX IMVI melanoma
  TGI: 20.1 µM
HOP-18 NSCLC
  TGI: 57.1 µM
OVCAR-3 ovarian
  TGI: 7.67 µM
M19-MEL melanoma
  TGI: 23.5 µM

## COCN(C)c1nc(N(C)C)nc(N(C)C)n1
TK-10 renal
  TGI: > 100 µM
M14 melanoma
  TGI: > 100 µM
U251 CNS
  TGI: > 100 µM
SF-268 CNS
  TGI: > 100 µM
SK-OV-3 ovarian
  TGI: > 100 µM
SNB-19 CNS
  TGI: > 100 µM
NCI-H460 lung
  TGI: > 100 µM
CCRF-CEM leukemia
  TGI: > 100 µM
OVCAR-8 ovarian
  TGI: > 100 µM
DMS 114 small cell lung
  TGI: > 100 µM
DLD-1 colon
  TGI: > 100 µM
MOLT-4 leukemia
  TGI: > 100 µM
SK-MEL-2 melanoma
  TGI: > 100 µM
UACC-62 melanoma
  TGI: > 100 µM
HCT-15 colon
  TGI: > 100 µM
786-0 renal
  TGI: > 100 µM
HT29 colon
  TGI: > 100 µM
OVCAR-4 ovarian
  TGI: > 100 µM
NCI-H23 lung
  TGI: > 100 µM
HOP-62 NSCLC
  TGI: > 100 µM
CAKI-1 renal
  TGI: > 100 µM
DMS 273 small cell lung
  TGI: > 100 µM
RXF 393 renal
  TGI: > 100 µM
HOP-92 NSCLC
  TGI: > 100 µM
SF-539 CNS
  TGI: > 100 µM
HCT-116 colon
  TGI: > 100 µM
A498 renal
  TGI: > 100 µM
SW-620 colon
  TGI: > 100 µM
SK-MEL-28 melanoma
  TGI: > 100 µM
A549 NSCLC
  TGI: > 100 µM
HL-60(TB) leukemia
  TGI: > 100 µM
IGROV1 ovarian
  TGI: > 100 µM
KM12 colon
  TGI: > 100 µM
MALME-3M melanoma
  TGI: > 100 µM
K-562 leukemia
  TGI: > 100 µM
SN12C renal
  TGI: > 100 µM
ACHN renal
  TGI: > 100 µM
SF-295 CNS
  TGI: > 100 µM
NCI-H522 lung
  TGI: 37 µM
SNB-75 CNS
  TGI: > 100 µM
SK-MEL-5 melanoma
  TGI: > 100 µM
KM20L2 colon
  TGI: > 100 µM
OVCAR-5 ovarian
  TGI: > 100 µM
EKVX NSCLC
  TGI: > 100 µM
LXFL 529 NSCLC
  TGI: > 100 µM
HCC-2998 colon
  TGI: > 100 µM
UO-31 renal
  TGI: > 100 µM
RPMI-8226 leukemia
  TGI: > 100 µM
COLO 205 colon
  TGI: > 100 µM
UACC-257 melanoma
  TGI: > 100 µM
LOX IMVI melanoma
  TGI: > 100 µM
SR leukemia
  TGI: > 100 µM
HOP-18 NSCLC
  TGI: > 100 µM
SNB-78 CNS
  TGI: > 100 µM
OVCAR-3 ovarian
  TGI: > 100 µM
M19-MEL melanoma
  TGI: > 100 µM
